Measurements reported in article PMC3249654 (The Open Virology Journal, 2011).
“And” between values parts separate entries of the source, which are not always exact repeats. Equal entries are not always repeated.

What was measured:
[1] = test system: influenza A(H1N1) viruses; conditions: cited from earlier work
[2] = test system: NA enzyme activity of influenza A(H1N1) viruses; format: biochemical, influenza A(H1N1) virus; conditions: read-out: IC50-values of outliers with reduced zanamivir susceptibility

Compound | average prevalence of ORV in Europe [1] [%] | IC50 [2]
CCOC(=O)C1=C[C@@H](OC(CC)CC)[C@H](NC(C)=O)[C@@H](N)C1 [oseltamivir] | 20.1 | –
CC(=O)N[C@H]1[C@H]([C@H](O)[C@H](O)CO)OC(C(=O)O)=C[C@@H]1N=C(N)N [zanamivir] | – | 3.1 nM and 3.4 nM and 5.3 nM
